In PubChem BioAssay AID1259407 (Chemical Carcinogenesis Research Information System (CCRIS), 2018) one finds mutagenic call data, which are given here for eight compounds.

Active and inactive are the calls of the source. No rule for the calls is given here.

The series has as its system CCRIS mutagenicity, Ames/micronucleus/aberration tests. Briefly: CCRIS mutagenicity studies.
Setting [1] is: Test System: AMES SALMONELLA TYPHIMURIUM, Strain/Indicator: TA97A, Metabolic Activation: NONE, Method: STANDARD PLATE.
[2] abbreviates: Test System: AMES SALMONELLA TYPHIMURIUM, Strain/Indicator: TA100, Metabolic Activation: NONE, Method: STANDARD PLATE.
[3] abbreviates: Test System: AMES SALMONELLA TYPHIMURIUM, Strain/Indicator: TA102, Metabolic Activation: NONE, Method: STANDARD PLATE.
[4] abbreviates: Test System: AMES SALMONELLA TYPHIMURIUM, Strain/Indicator: TA98, Metabolic Activation: NONE, Method: STANDARD PLATE.
[5] abbreviates: Test System: AMES SALMONELLA TYPHIMURIUM, Strain/Indicator: TA1535, Metabolic Activation: NONE, Method: STANDARD PLATE.
Setting [6] is: Test System: AMES SALMONELLA TYPHIMURIUM, Strain/Indicator: TA1537, Metabolic Activation: NONE, Method: STANDARD PLATE.

As to `CCN(CC)Cc1cc(Nc2ccnc3cc(Cl)ccc23)ccc1O`, the mutagenic call runs as follows: under setting [1], “inactive; negative”; (Test System: AMES SALMONELLA TYPHIMURIUM, Strain/Indicator: TA97A, Metabolic Activation: RAT LIVER S-9, PHENOBARBITAL, Method: STANDARD PLATE) “inactive; negative”; under setting [2], “inactive; negative”; (Test System: AMES SALMONELLA TYPHIMURIUM, Strain/Indicator: TA100, Metabolic Activation: RAT LIVER S-9, PHENOBARBITAL, Method: STANDARD PLATE) “inactive; negative”; under setting [3], “inactive; negative”; (Test System: AMES SALMONELLA TYPHIMURIUM, Strain/Indicator: TA102, Metabolic Activation: RAT LIVER S-9, PHENOBARBITAL, Method: STANDARD PLATE) “inactive; negative”. Also, the mutagenic call is “inactive; negative” (Test System: AMES SALMONELLA TYPHIMURIUM, Strain/Indicator: TA104, Metabolic Activation: NONE, Method: STANDARD PLATE) and “inactive; negative” (Test System: AMES SALMONELLA TYPHIMURIUM, Strain/Indicator: TA104, Metabolic Activation: RAT LIVER S-9, PHENOBARBITAL, Method: STANDARD PLATE).
With `CC(=O)ON(OCc1ccc(Oc2ccccc2)cc1)C(=O)c1ccccc1`, the mutagenic call was “active; positive” under setting [2] and “active; positive” (Test System: AMES SALMONELLA TYPHIMURIUM, Strain/Indicator: TA100, Metabolic Activation: RAT, S-9, AROCLOR, Method: STANDARD PLATE).
For `CN(C)c1ccc(C(=C2C=CC(=[N+](C)C)C=C2)c2ccccc2)cc1`, the mutagenic call was “inactive; negative” (End Point: IN VIVO MICRONUCLEUS, Test System: PERIPHERAL BLOOD ERYTHROCYTES, Species: MOUSE, Strain/Sex: BIG BLUE B6C3F1/FEMALE, Route: DIET); “inactive; negative” under setting [1]; “inactive; negative” (Test System: AMES SALMONELLA TYPHIMURIUM, Strain/Indicator: TA97A, Metabolic Activation: RAT LIVER S-9, 3-METHYLCHOLANTHRENE, PHENOBARBITAL, Method: STANDARD PLATE); “inactive; negative” under setting [4]; “inactive; negative” (Test System: AMES SALMONELLA TYPHIMURIUM, Strain/Indicator: TA98, Metabolic Activation: RAT LIVER S-9, 3-METHYLCHOLANTHRENE, PHENOBARBITAL, Method: STANDARD PLATE); “active; positive” (Test System: AMES SALMONELLA TYPHIMURIUM, Strain/Indicator: TA98, Metabolic Activation: RAT, LIVER, S-9, Method: STANDARD PLATE). Also, the mutagenic call was “inactive; negative” under setting [2]; “inactive; negative” (Test System: AMES SALMONELLA TYPHIMURIUM, Strain/Indicator: TA100, Metabolic Activation: RAT LIVER S-9, 3-METHYLCHOLANTHRENE, PHENOBARBITAL, Method: STANDARD PLATE); “inactive; negative” (Test System: AMES SALMONELLA TYPHIMURIUM, Strain/Indicator: TA100, Metabolic Activation: RAT, LIVER, S-9, Method: STANDARD PLATE); “active; positive” (Test System: AMES SALMONELLA TYPHIMURIUM, Strain/Indicator: TA100, Method: PREINCUBATION); “inactive; negative” under setting [3]; “inactive; negative” (Test System: AMES SALMONELLA TYPHIMURIUM, Strain/Indicator: TA102, Metabolic Activation: RAT LIVER S-9, 3-METHYLCHOLANTHRENE, PHENOBARBITAL, Method: STANDARD PLATE). In addition, the mutagenic call runs as follows: under setting [5], “inactive; negative”; (Test System: AMES SALMONELLA TYPHIMURIUM, Strain/Indicator: TA1535, Metabolic Activation: RAT, LIVER, S-9, Method: STANDARD PLATE) “inactive; negative”; under setting [6], “inactive; negative”; (Test System: AMES SALMONELLA TYPHIMURIUM, Strain/Indicator: TA1537, Metabolic Activation: RAT, LIVER, S-9, Method: STANDARD PLATE) “inactive; negative”; (Test System: CHO/HGPRT, Strain/Indicator: CHO-K1, Metabolic Activation: NONE, Method: STANDARD PLATE) “inactive; negative”; (Test System: CHO/HGPRT, Strain/Indicator: CHO-K1, Metabolic Activation: RAT LIVER S-9, 3-METHYLCHOLANTHRENE, PHENOBARBITAL, Method: STANDARD PLATE) “inactive; negative”.
Consider `[S]=[Pb]`, for which the mutagenic call (Test System: CHINESE HAMSTER V-79, Strain/Indicator: V-79/6-THIOGUANINE, Metabolic Activation: NONE, Method: STANDARD PLATE) is “active; positive”.
As for `CC(=O)Nc1ccc(S(=O)(=O)Nc2ccccn2)cc1`, the mutagenic call (Test System: AMES SALMONELLA TYPHIMURIUM, Strain/Indicator: TA98, Metabolic Activation: NONE, Method: PREINCUBATION) is “inactive; negative”; the mutagenic call (Test System: AMES SALMONELLA TYPHIMURIUM, Strain/Indicator: TA98, Metabolic Activation: RAT, LIVER, S-9, AROCLOR 1254, Method: PREINCUBATION) is “inactive; negative”; the mutagenic call (Test System: AMES SALMONELLA TYPHIMURIUM, Strain/Indicator: TA100, Metabolic Activation: NONE, Method: PREINCUBATION) was “inactive; negative”; the mutagenic call (Test System: AMES SALMONELLA TYPHIMURIUM, Strain/Indicator: TA100, Metabolic Activation: RAT, LIVER, S-9, AROCLOR 1254, Method: PREINCUBATION) was “inactive; negative”.
`CCN(CC)c1ccc(N=Nc2c(Cl)cc([N+](=O)[O-])cc2Cl)cc1`: the mutagenic call under setting [4] is “active; positive”; the mutagenic call (Test System: AMES SALMONELLA TYPHIMURIUM, Strain/Indicator: TA98, Metabolic Activation: RAT, LIVER, S-9, AROCLOR 1254, Method: STANDARD PLATE) is “active; positive”; the mutagenic call under setting [2] was “inactive; negative”; the mutagenic call (Test System: AMES SALMONELLA TYPHIMURIUM, Strain/Indicator: TA100, Metabolic Activation: RAT, LIVER, S-9, AROCLOR 1254, Method: STANDARD PLATE) was “inactive; negative”; the mutagenic call under setting [5] was “inactive; negative”; the mutagenic call (Test System: AMES SALMONELLA TYPHIMURIUM, Strain/Indicator: TA1535, Metabolic Activation: RAT, LIVER, S-9, AROCLOR 1254, Method: STANDARD PLATE) is “inactive; negative”. Moreover, the mutagenic call was “inactive; negative” under setting [6]; “inactive; negative” (Test System: AMES SALMONELLA TYPHIMURIUM, Strain/Indicator: TA1537, Metabolic Activation: RAT, LIVER, S-9, AROCLOR 1254, Method: STANDARD PLATE); “inactive; negative” (Test System: CHINESE HAMSTER OVARY, Strain/Indicator: CHO (HGPRT)/6-THIOGUANINE, Metabolic Activation: NONE); “inactive; negative” (Test System: CHINESE HAMSTER OVARY, Strain/Indicator: CHO (HGPRT)/6-THIOGUANINE, Metabolic Activation: RAT, LIVER, S-9, AROCLOR 1254); “inactive; negative” (Test System: UDS RAT HEPATOCYTES, Strain/Indicator: THY INCORP, Metabolic Activation: NONE, Method: AUTORADIOGRAPHY).
On to `Cc1cc(O)c2c(c1O)C(=O)c1c(-c3ccc(O)c4c3C(=O)c3c(O)c(C)cc(O)c3C4=O)ccc(O)c1C2=O`, for which the mutagenic call (Test System: UDS RODENT HEPATOCYTES, Strain/Indicator: THY INCORP, Metabolic Activation: NONE, Method: AUTORADIOGRAPHY) was “inactive; negative”.
Consider `Cc1c2c3c(cccc3c3ccccc13)-c1ccccc1-2`, for which the mutagenic call (Test System: AMES SALMONELLA TYPHIMURIUM, Strain/Indicator: TA100, Metabolic Activation: RAT, LIVER, S-9, AROCLOR 1254) is “active; positive”.
